# Results published in patent US11419869B2, “Dosage forms and regimens for amino acid compounds” (Pliant Therapeutics, Inc., priority 2019, dated 2022).
# Molecular target: recombinant human integrin αvβ6 (Homo sapiens (Human), UniProt P06756+P18564)
# Assay: Solid Phase Integrin αvβ6 Binding Assay (Examples B1, B2)
# Settings: TGFβ1 LAP ligand, values given in four ranges, read-out: αvβ6 Inhibition IC50 (nM)-range
# In short: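 Plates coated with recombinant human αvβ6 (2 μg/mL) compete compound against recombinant TGFβ1 LAP (0.67 μg/mL) in TBS binding buffer with 0.5 mM MnCl2, 2 h at 25 °C. Bound LAP detected with biotin-anti-hLAP and peroxidase-streptavidin; IC50 by four-parameter logistic regression.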
# Sequence of recombinant human integrin αvβ6 (P06756 31-992): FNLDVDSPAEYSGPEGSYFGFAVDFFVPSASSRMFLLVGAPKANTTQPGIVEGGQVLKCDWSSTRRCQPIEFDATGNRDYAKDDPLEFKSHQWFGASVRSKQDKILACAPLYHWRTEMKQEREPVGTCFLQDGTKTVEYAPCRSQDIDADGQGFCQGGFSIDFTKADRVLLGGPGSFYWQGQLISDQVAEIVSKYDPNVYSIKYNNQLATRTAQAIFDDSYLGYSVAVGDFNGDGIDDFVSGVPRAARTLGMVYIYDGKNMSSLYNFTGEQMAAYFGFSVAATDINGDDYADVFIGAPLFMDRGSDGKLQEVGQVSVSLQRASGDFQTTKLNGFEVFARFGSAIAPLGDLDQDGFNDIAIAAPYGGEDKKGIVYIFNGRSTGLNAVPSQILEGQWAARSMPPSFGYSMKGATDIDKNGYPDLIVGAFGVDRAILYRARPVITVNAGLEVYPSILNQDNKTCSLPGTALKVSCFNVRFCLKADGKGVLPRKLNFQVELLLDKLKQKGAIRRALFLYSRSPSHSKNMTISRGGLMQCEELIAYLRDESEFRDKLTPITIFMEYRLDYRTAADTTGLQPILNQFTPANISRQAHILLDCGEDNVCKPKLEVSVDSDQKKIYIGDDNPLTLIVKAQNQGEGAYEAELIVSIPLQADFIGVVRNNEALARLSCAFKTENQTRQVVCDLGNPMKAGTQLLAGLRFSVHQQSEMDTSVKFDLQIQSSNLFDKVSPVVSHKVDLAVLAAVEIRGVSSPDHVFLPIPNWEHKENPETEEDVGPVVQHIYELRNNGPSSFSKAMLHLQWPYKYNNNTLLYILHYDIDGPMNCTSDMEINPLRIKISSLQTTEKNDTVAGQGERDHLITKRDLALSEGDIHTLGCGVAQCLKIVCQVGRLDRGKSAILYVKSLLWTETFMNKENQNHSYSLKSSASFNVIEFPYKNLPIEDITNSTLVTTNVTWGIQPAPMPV
# Sequence of recombinant human integrin αvβ6 (P18564 22-707): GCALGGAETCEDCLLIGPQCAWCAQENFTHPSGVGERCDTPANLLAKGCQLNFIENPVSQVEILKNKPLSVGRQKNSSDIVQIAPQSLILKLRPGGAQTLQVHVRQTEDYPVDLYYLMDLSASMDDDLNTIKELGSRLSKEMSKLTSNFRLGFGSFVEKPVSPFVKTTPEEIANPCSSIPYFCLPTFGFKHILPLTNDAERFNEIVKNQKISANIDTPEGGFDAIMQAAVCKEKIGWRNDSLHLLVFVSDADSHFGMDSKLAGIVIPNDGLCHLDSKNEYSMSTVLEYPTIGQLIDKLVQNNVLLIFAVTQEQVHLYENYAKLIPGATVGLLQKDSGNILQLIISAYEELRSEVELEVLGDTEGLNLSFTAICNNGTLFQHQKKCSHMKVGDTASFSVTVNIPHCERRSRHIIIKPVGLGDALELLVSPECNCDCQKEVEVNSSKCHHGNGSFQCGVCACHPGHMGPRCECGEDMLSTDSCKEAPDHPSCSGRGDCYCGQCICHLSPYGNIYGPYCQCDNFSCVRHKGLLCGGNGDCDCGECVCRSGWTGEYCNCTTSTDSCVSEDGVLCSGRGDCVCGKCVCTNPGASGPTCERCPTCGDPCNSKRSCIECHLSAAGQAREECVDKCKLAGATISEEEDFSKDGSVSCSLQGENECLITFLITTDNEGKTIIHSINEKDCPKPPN
row,IC50 [nM],SMILES
1,> 1000,"O=C(O)[C@H](CCN(CCCCc1ccc2c(n1)NCCC2)CC(F)F)Nc1ncc(Br)cn1 [Compound 96, (S)-2-((5-bromopyrimidin-2-yl)amino)-4-((2,2-difluoroethyl) (4-(5,6,7,8-tetrahydro-1,8-naphthyridin-2-yl)butyl)amino) butanoic acid]"
2,> 1000,"O=C(O)[C@H](CCN(CCCCc1ccc2c(n1)NCCC2)CC(F)F)Nc1ccnc(C(F)(F)F)n1 [Compound 97, (S)-4-((2,2-difluoroethyl) (4-(5,6,7,8-tetrahydro-1,8-naphthyridin-2-yl)butyl)amino)-2-((2-(trifluoromethyl)pyrimidin-4-yl)amino) butanoic acid]"
3,> 1000,"O=C(O)[C@H](CCN(CCCCc1ccc2c(n1)NCCC2)CC(F)F)Nc1cc(-n2cccn2)ncn1 [Compound 98, (S)-2-((6-(1H-pyrazol-1-yl)pyrimidin-4-yl)amino)-4-((2,2-difluoroethyl) (4-(5,6,7,8-tetrahydro-1,8-naphthyridin-2-yl)butyl)amino) butanoic acid]"
4,< 50,"CO[C@H](C)CN(CCCCc1ccc2c(n1)NCCC2)CC[C@H](Nc1nc(-c2cccnc2)nc2ccccc12)C(=O)O [Compound 100, (S)-4-(((R)-2-methoxypropyl) (4-(5,6,7,8-tetrahydro-1,8-naphthyridin-2-yl)butyl)amino)-2-((2-(pyridin-3-yl)quinazolin-4-yl)amino) butanoic acid]"
5,> 1000,"CS(=O)(=O)CCN(CCCCc1ccc2c(n1)NCCC2)CC[C@H](Nc1ncc(C(F)(F)F)cn1)C(=O)O [Compound 102, (S)-4-((2-(methylsulfonyl)ethyl) (4-(5,6,7,8-tetrahydro-1,8-naphthyridin-2-yl)butyl)amino)-2-((5-(trifluoromethyl)pyrimidin-2-yl)amino) butanoic acid]"
6,> 1000,"CS(=O)(=O)CCN(CCCCc1ccc2c(n1)NCCC2)CC[C@H](Nc1ncc(Br)cn1)C(=O)O [Compound 103, (S)-2-((5-bromopyrimidin-2-yl)amino)-4-((2-(methylsulfonyl)ethyl) (4-(5,6,7,8-tetrahydro-1,8-naphthyridin-2-yl)butyl)amino) butanoic acid]"
7,> 1000,"CS(=O)(=O)CCN(CCCCc1ccc2c(n1)NCCC2)CC[C@H](Nc1ccnc(C(F)(F)F)n1)C(=O)O [Compound 104, (S)-4-((2-(methylsulfonyl)ethyl) (4-(5,6,7,8-tetrahydro-1,8-naphthyridin-2-yl)butyl)amino)-2-((2-(trifluoromethyl)pyrimidin-4-yl)amino) butanoic acid]"
8,< 50,"COC[C@@H](F)CN(CCCCc1ccc2c(n1)NCCC2)CC[C@H](Nc1ncnc2c1cnn2C)C(=O)O [Compound 105, (S)-4-(((S)-2-fluoro-3-methoxypropyl) (4-(5,6,7,8-tetrahydro-1,8-naphthyridin-2-yl)butyl)amino)-2-((1-methyl-1H-pyrazolo[3,4-d]pyrimidin-4-yl)amino) butanoic acid]"
9,< 50,"CO[C@H](C)CN(CCCCc1ccc2c(n1)NCCC2)CC[C@H](Nc1ccncn1)C(=O)O [Compound 106, (S)-4-(((R)-2-methoxypropyl) (4-(5,6,7,8-tetrahydro-1,8-naphthyridin-2-yl)butyl)amino)-2-(pyrimidin-4-ylamino) butanoic acid]"
10,250 to 1000,"CS(=O)(=O)CCN(CCCCc1ccc2c(n1)NCCC2)CC[C@H](Nc1nc(-c2cccnc2)nc2ccccc12)C(=O)O [Compound 107, (S)-4-((2-(methylsufonyl)ethyl) (4-(5,6,7,8-tetrahydro-1,8-naphthyridin-2-yl)butyl)amino)-2-((2-(pyridin-3-yl)quinazolin-4-yl)amino) butanoic acid]"
11,> 1000,"COC[C@@H](F)CN(CCCCc1ccc2c(n1)NCCC2)CC[C@H](Nc1cc(-n2cccn2)ncn1)C(=O)O [Compound 108, (S)-2-((6-(1H-pyrazol-1-yl)pyrimidin-4-yl)amino)-4-(((S)-2-fluoro-3-methoxypropyl) (4-(5,6,7,8-tetrahydro-1,8-naphthyridin-2-yl)butyl)amino) butanoic acid]"
12,< 50,"COC[C@@H](F)CN(CCCCc1ccc2c(n1)NCCC2)CC[C@H](Nc1nc(-c2cccnc2)nc2ccccc12)C(=O)O [Compound 109, (S)-4-(((S)-2-fluoro-3-methoxypropyl) (4-(5,6,7,8-tetrahydro-1,8-naphthyridin-2-yl)butyl)amino)-2-((2-(pyridin-3-yl)quinazolin-4-yl)amino) butanoic acid]"
13,< 50,"COC[C@@H](F)CN(CCCCc1ccc2c(n1)NCCC2)CC[C@H](Nc1ncncc1-c1ccccc1)C(=O)O [Compound 110, (S)-4-(((S)-2-fluoro-3-methoxypropyl) (4-(5,6,7,8-tetrahydro-1,8-naphthyridin-2-yl)butyl)amino)-2-((5-phenylpyrimidin-4-yl)amino) butanoic acid]"
14,< 50,"N#Cc1cnc(N[C@@H](CCN(CCCCc2ccc3c(n2)NCCC3)CCOc2ccccc2)C(=O)O)nc1 [Compound 111, (S)-2-((5-cyanopyrimidin-2-yl)amino)-4-((2-phenoxyethyl) (4-(5,6,7,8-tetrahydro-1,8-naphthyridin-2-yl)butyl)amino) butanoic acid]"
15,< 50,"O=C(O)[C@H](CCN(CCCCc1ccc2c(n1)NCCC2)C1CC1)Nc1ncc(C(F)(F)F)cn1 [Compound 114, (S)-4-(cyclopropyl(4-(5,6,7,8-tetrahydro-1,8-naphthyridin-2-yl)butyl)amino)-2-((5-(trifluoromethyl)pyrimidin-2-yl)amino) butanoic acid]"
16,< 50,"O=C(O)[C@H](CCN(CCCCc1ccc2c(n1)NCCC2)CCOc1ccccc1)Nc1ncc(C2CC2)cn1 [Compound 117, (S)-2-((5-cyclopropylpyrimidin-2-yl)amino)-4-((2-phenoxyethyl) (4-(5,6,7,8-tetrahydro-1,8-naphthyridin-2-yl)butyl)amino) butanoic acid]"
17,> 1000,"N#Cc1cnc(N[C@@H](CCN(CCCCc2ccc3c(n2)NCCC3)CC(F)F)C(=O)O)nc1 [Compound 118, (S)-2-((5-cyanopyrimidin-2-yl)amino)-4-((2,2-difluoroethyl) (4-(5,6,7,8-tetrahydro-1,8-naphthyridin-2-yl)butyl)amino) butanoic acid]"
18,> 1000,"O=C(O)[C@H](CCN(CCCCc1ccc2c(n1)NCCC2)CC(F)F)Nc1ncncc1-c1ccccc1 [Compound 119, (S)-4-((2,2-difluoroethyl) (4-(5,6,7,8-tetrahydro-1,8-naphthyridin-2-yl)butyl)amino)-2-((5-phenylpyrimidin-4-yl)amino) butanoic acid]"
19,> 1000,"O=C(O)[C@H](CCN(CCCCc1ccc2c(n1)NCCC2)CC(F)F)Nc1ccncn1 [Compound 120, (S)-4-((2,2-difluoroethyl) (4-(5,6,7,8-tetrahydro-1,8-naphthyridin-2-yl)butyl)amino)-2-(pyrimidin-4-ylamino) butanoic acid]"
20,> 1000,"O=C(O)[C@H](CCN(CCCCc1ccc2c(n1)NCCC2)CC(F)F)Nc1ncc(F)cn1 [Compound 121, (S)-4-((2,2-difluoroethyl) (4-(5,6,7,8-tetrahydro-1,8-naphthyridin-2-yl)butyl)amino)-2-((5-fluoropyrimidin-2-yl)amino) butanoic acid]"
21,< 50,"Cn1ncc2c(N[C@@H](CCN(CCCCc3ccc4c(n3)NCCC4)CCOc3ccc(F)cc3)C(=O)O)ncnc21 [Compound 123, (S)-4-((2-(4-fluorophenoxy)ethyl) (4-(5,6,7,8-tetrahydro-1,8-naphthyridin-2-yl)butyl)amino)-2-((1-methyl-1H-pyrazolo[3,4-d]pyrimidin-4-yl)amino) butanoic acid]"
22,< 50,"CO[C@H](C)CN(CCCCc1ccc2c(n1)NCCC2)CC[C@H](Nc1ncc(C2CC2)cn1)C(=O)O [Compound 124, (S)-2-((5-cyclopropylpyrimidin-2-yl)amino)-4-(((R)-2-methoxypropyl) (4-(5,6,7,8-tetrahydro-1,8-naphthyridin-2-yl)butyl)amino) butanoic acid]"
23,> 1000,"CS(=O)(=O)CCN(CCCCc1ccc2c(n1)NCCC2)CC[C@H](Nc1cc(-n2cccn2)ncn1)C(=O)O [Compound 126, (S)-2-((6-(1H-pyrazol-1-yl)pyrimidin-4-yl)amino)-4-((2-(methylsulfonyl)ethyl) (4-(5,6,7,8-tetrahydro-1,8-naphthyridin-2-yl)butyl)amino) butanoic acid]"
24,> 1000,"COC[C@@H](F)CN(CCCCc1ccc2c(n1)NCCC2)CC[C@H](Nc1cc(-c2ccccc2)ncn1)C(=O)O [Compound 128, (S)-4-(((S)-2-fluoro-3-methoxypropyl) (4-(5,6,7,8-tetrahydro-1,8-naphthyridin-2-yl)butyl)amino)-2-((6-phenylpyrimidin-4-yl)amino) butanoic acid]"
25,< 50,"O=C(O)[C@H](CCN(CCCCc1ccc2c(n1)NCCC2)CC1CCO1)Nc1ncnc2ccccc12 (stereo partly drawn) [Compound 129, (2S)-4-((oxetan-2-ylmethyl) (4-(5,6,7,8-tetrahydro-1,8-naphthyridin-2-yl)butyl)amino)-2-(quinazolin-4-ylamino) butanoic acid]"
26,< 50,"O=C(O)[C@H](CCN(CCCCc1ccc2c(n1)NCCC2)CC(CO)CO)Nc1ncnc2ccccc12 [Compound 130, (S)-4-((3-hydroxy-2-(hydroxymethyl)propyl) (4-(5,6,7,8-tetrahydro-1,8-naphthyridin-2-yl)butyl)amino)-2-(quinazolin-4-ylamino) butanoic acid]"
27,< 50,"Cn1ncc2c(N[C@@H](CCN(CCCF)CCCCc3ccc4c(n3)NCCC4)C(=O)O)ncnc21 [Compound 136, (S)-4-((3-fluoropropyl) (4-(5,6,7,8-tetrahydro-1,8-naphthyridin-2-yl)butyl)amino)-2-((1-methyl-1H-pyrazolo[3,4-d]pyrimidin-4-yl)amino) butanoic acid]"
